According to patent US20220339135A1, “COMPOSITIONS AND METHODS FOR MODULATING AN INFLAMMATORY RESPONSE” (Enzychem Lifesciences Corporation, priority 2019, published 2022):

Key:
[1] = tested on: chemo-radiation and scratch induced oral mucositis; experiment: Chemo-radiation and scratch induced oral mucositis; assay type: in vivo, mice; settings: PLAG 250 mg/kg oral, n=7
Description: For radiation therapy, mice received 1 Gy of gamma radiation with mice whole body. Mice were intraperitoneally administered 5-FU (Sigma Aldrich) at 50 mg/kg. For facilitating the risk of infection, mice were anesthetized with 2,2,2-tribromoethanol (150 mg/kg, Sigma Aldrich) by intraperitoneal injection, and then tongue was scratched 0.2 cm wound on a third of side at using the tip of an 18-gauge needle with an equal force and depth. PLAG (Enzychem Lifesciences) was stored in −80° C. refrigerator and was administered orally once with 250 mg/kg. Formulations were aggressively mixed to be cloudiness and were injected within 10 minutes.
The tongue was scratched 0.2 cm wound on a third of side at using the tip of an 18-gauge needle with an equal force and depth on Day 0, 7, 10, and 16. Mice were received 1 Gy of gamma radiation on Day 2 and 5-FU was administered intraperitoneally in a dose of 50 mg/kg on Days 4. For the group receiving PLAG, 250 mg/kg of PLAG was administered orally once daily. To check the oral mucositis, mice were anesthetized with 2,2,2-tribromoethanol (150 mg/kg, Sigma Aldrich) by intraperitoneal injection on Day 7, 10, 14, 18. Each group contained seven mice.

[2] = tested on: Pseudomonas aeruginosa strain K (PAK) in BALF; experiment: PAK clearance in AC regimen-induced immunocompromised mice; assay type: in vivo; settings: PLAG 250 mg/kg oral once daily 5 days, BALF 3 and 6 hours after infection
Description: To establish a chemotherapy-induced immunocompromised mice model, the mice were administered a single intravenous injection of 50 mg/kg cyclophosphamide and 2.5 mg/kg doxorubicin (AC regimen). After 5 days from the injection of AC regimen, blood samples were collected from an intra-orbital vein using EDTA capillary tubes, and the number of circulating neutrophils was measured by complete blood cell count (CBC) analysis using Mindray BC-5300 auto-hematology analyzer (Shenzhen Mindray Bio-medical Electronics, China). Pseudomonas aeruginosa strain K (PAK) was grown overnight in LB broth at 37° C. with agitation and then harvested by centrifugation at 13,000×g for 2 minutes. […] The diluted bacteria were administrated to the mice by intranasal injection. Bronchoalveolar lavage fluid (BALF) samples were collected from the PAK-infected mice at different time points after infection in normal mice model and in AC regimen-induced immunocompromised mice model. […] The number of viable bacteria in BALF was determined by counting the number of colonies formed in the plates. […] The BALF samples were harvested at 3 and 6 hours after the infection, and live PAK in BALF after AC regimen and AC regimen/PLAG treatment was determined by counting with colony-forming units (FIG. 6B).

[3] = Micelle particle size by DLS and TEM; assay type: physicochemical; settings: micelles
Description: The formation of micelles composed of PLAG or POPC was prepared in RPMI1640 medium by vigorous stirring at a final concentration of 10 mg/ml. The particle size of PLAG and POPC micelles was measured by dynamic light scattering (Zetasizer 3000HS, Malvern Instruments Ltd., UK). The morphological examination of the micelles was performed by transmission electron microscopy (TEM) by dropping the samples into the carbon films on the copper grid for viewing with 2% (weight per volume) phosphotungstic acid staining.

[4] = Cumulative excretion of radioactivity after single oral administration; assay type: in vivo, rats
Description: Excretion of PLAG at a single oral administration of 50 mg/kg BW to rats was examined in Mitsubishi Chemical Medicine Corporation (Japan) by radioactivity analysis. After oral administration of a single dose of 50 mg/kg, animals were individually accommodated in glass metabolic cages (Metabolica Model MC-CO2). Spontaneously excreted urine, feces, and radioactive molecules expired from each animal were collected. Sampling time points are 0-24, 24-48, 48-72 hours after administration. Then radioactivity and the excretion ratios and amount of radioactivity were determined. Radioactivity was measured by LSC (Tri-Carb 2300TR. Perkin Elmer, Inc) with the tSIE (transformed spectral index of external standard) method for the quenching correction.

[5] = tested on: Rac1, p47phox in BMDMs and THP-1 cells; experiment: Rac1 membrane translocation and p47phox phosphorylation; assay type: cell-based
Description: Total cells were lysed on ice for 30 minutes in RIPA buffer composed of 50 mM Tris-HCl (pH 7.4), 150 mM NaCl, 2 mM EDTA, 1% NP-40, 0.5% sodium deoxycholate, 0.1% SDS, 1 mM phenylmethylsulfonyl fluoride (PMSF), 10 mM sodium fluoride, 2 mM sodium pyrophosphate, 10 mM β-glycerophosphate, 10 mM sodium orthovanadate. Membrane-and-cytoplasmic protein fractions of cultured cells were obtained with Mem-PER Plus Membrane Protein Extraction Kit (Thermo Scientific, MA, USA) according to the manufacturer's instructions. The lysates were centrifuged at 13,000 rpm for 20 minutes at 4° C. and protein concentrations were determined using the Bradford assay (Bio-Rad Laboratories). Denatured samples were mixed with a 5×SDS-PAGE loading buffer and heated to 100° C. for 15 min. The samples were separated on the 10% of SDS-PAGE gel and transferred to polyvinylidene difluoride (PVDF) membranes (Merck Millipore Corporation, MA, USA). Membranes were blocked with 5% non-fat milk in PBS (10 mM Tris-HCl, pH7.5, 150 mM NaCl) for 1 h and probed with primary antibodies against ERK1/2, phospho-ERK1/2, P38, phospho-P38, SAPK/JNK, phospho-SAPK/JNK, Na, K-ATPase, α-Tubulin, and β-actin from Cell Signaling Technology (MA, USA), Rac1 from Merck Millipore Corporation), p47phox and phospho-p47phox from Invitrogen, adenosine receptor A1 from Abcam, β arrestin-1 from Santa Cruz Technology for overnight at 4° C. […]

[6] = tested on: gemcitabine-induced neutropenia; settings: cited from earlier work

For `CCCCC/C=C\C/C=C\CCCCCCCC(=O)OC(COC(C)=O)COC(=O)CCCCCCCCCCCCCCC` (racemic) [PLAG, 1-palmitoyl-2-linoleoyl-3-acetylglycerol], the “survival rate after 18 days” value [1] was 85%, the “bacterial clearance (live PAK CFU in BALF)” value [2] was “significantly accelerates” and the “average diameter (DLS)” value [3] was 107.6 nm. For the same compound, the “particle shape (TEM)” value [3] was “spherical shape”, the “dosed radioactivity excreted into expired air” value ([4]; 50 mg/kg oral, by 24 hours) was 71.0% and the “dosed radioactivity excreted into feces” value ([4]; 50 mg/kg oral, by 24 hours) was 3.0%. For the same compound, the “dosed radioactivity excreted into urine” value ([4]; 50 mg/kg oral, by 24 hours) was 1.9%, the “total recovery of radioactivity” value ([4]; 50 mg/kg oral, by 24 hours) was 75.9% and the “PLAG administered degraded and metabolized” value ([4]; within 24 hours) was “approximately 76%”. The “gemcitabine-induced p47phox phosphorylation” value ([5]; dose-dependent) was “effectively inhibited”, the “translocation of Rac1 from the cytosol to the membrane” value ([5]; gemcitabine-stimulated THP-1 cells) was “significantly inhibited” and the gemcitabine-induced neutropenia ([6]; Jeong et al., 2019) was “attenu¬ated the neutropenia”. The “anti-cancer effect of gemcitabine” value ([6]; athymic nude mice implanted with a human myeloma cell line) was “did not interfere”.
